Measured values: publication PMC12735704, “Synthesis of Substituted 1H-Phenalen-1-ones and Nitrogen-Containing Heterocyclic Analogues as Potential Anti-Plasmodial Agents” (Molecules, 2025)
Like-named read-outs stand apart in the source and are kept apart here.

Experiments:
[1] = tested on: Chloroquine-resistant P. falciparum FCR3; test: In vitro antimalarial assay (parasitemia by blood smear, 48 h with compound); type: cell-based, Plasmodium falciparum; conditions: for antiplasmodium activity (in words): FCR3 strain, tested up to 10 µM
[2] = tested on: Chloroquine-resistant P. falciparum FCR3; test: as above; type: cell-based, Plasmodium falciparum; conditions: mean ± SD of three determinations
Experimental: • In vitro antimalarial assay.
FCR-3 chloroquine-resistant strain of P. falciparum (kindly provided by Dr. Fandeur, Pasteur Institute, Cayenne, France) was cultured on glucose-enriched RPMI 1640 medium, supplemented with 10% human serum at 37 °C. After 24 h of incubation at 37 °C, the medium was replaced by fresh medium supplemented with the compound to be evaluated (initial a screening used a concentration of 10 μg/mL), and incubation was continued for a further 48 h. On the third day of the test, a blood smear was taken from each well, and parasitemia was calculated for each concentration of sample compared to the control. Chloroquine (0.1 μg/mL) was used as a positive control. IC50 values were determined graphically by plotting concentrations (0.01–10 μg/mL) versus percent inhibition. All tests were performed in triplicate.

MCF-7 cells = test: Cytotoxicity study by MTT proliferation assay; type: cell-based; conditions: 72 h; for MCF-7 % Inh ± DS (10 μM): inhibition of cell growth; for inhibition at 10 µM: Homo sapiens, MCF7, inhibition of cell growth, read-out: MCF-7 % Inh ± DS (10 μM)
Experimental: • Cytotoxicity study by MTT proliferation assay. MCF-7 cells were purchased from ATCC (Manassas, VA, USA) and cultured in DMEN containing 10% FBS. For 3-(4,5-dimethylthiazol-2-yl)-2,5-diphenyltetrazolium (MTT) (Sigma–Aldrich, St. Louis, MO, USA) analysis, cells were plated in 96-well plates at 10,000 cells/well. Twenty-four hours after plating, vehicle (0.1% DMSO, final concentration) or compound was added to cells at indicated doses. Seventy-two hours following compound addition, MTT was added to each well (0.5 mg/mL, final concentration) and plates were incubated for an additional 3 h at 37 °C. Medium was then aspirated and the formazan product was solubilized in SDS–HCl (20% SDS; HCl 0.02 M). The absorbance of each well was measured at 570 nm using a microplate reader (Sigma–Aldrich, St. Louis, MO, USA).

Plasmodium falciparum = tested on: Plasmodium falciparum; parameters: method as in PMID 23985373; conditions: previously tested compounds; read-out: IC50 (antiplasmodial activity, previously tested compounds); cited from earlier work
[3] = Plasmodium falciparum, FCR3, FCR3 strain

Compound	IC50 [2, 3] [µM]	inhibition at 10 µM (MCF-7 cells) [%]	antiplasmodium activity (in words) [1]	further results
CCN(CC)CCCC(C)Nc1ccnc2cc(Cl)ccc12 (centres unmarked) [Chloroquine, reference compound]				IC50 ([1]; Plasmodium falciparum, FCR3, read-out: Chloroquine-Resistant P. falciparum FCR3 IC50 ± SD): 0.16 ± 0.02 µM
2-((2,6-dimethylphenyl)amino)-2,3-dihydro-1H-phenalen-1-one [Compound 24]				IC50 ([2]; FCR3 strain): > 10 µM; MCF-7 % Inh ± DS (10 μM) (MCF-7 cells): 7 ± 0.5%
Cc1cccc(C)c1Nc1ccc2cccc3c2c1C(=O)C=C3 [Compound 16, 9-[(2,6-dimethylphenyl)amino]-1H-phenalen-1-one]	> 10	0		
N#Cc1ccc(C2=Cc3cccc4cccc(c34)C2=O)cc1 [Compound 5, 4-(1-oxo-1H-phenalen-2-yl)benzonitrile]	> 10	12 ± 0.3		
N#CC1=Cc2cccc3cccc(c23)C1=O [Compound 20, 1-oxo-1H-phenalene-2-carbonitrile]	> 10	11 ± 0.2	neither the 2-cyano compound (20) nor the 9-amido compound (19) were active, even at 10 µM	
N-(1-oxo-1H-phenalene-2-yl)carboxamide [Compound 21]				IC50 ([2]; FCR3 strain): > 10 µM; MCF-7 % Inh ± DS (10 μM) (MCF-7 cells): 8 ± 0.3%
N#Cc1ccc(-c2ccc3cccc4c3c2C(=O)C=C4)cc1 [Compound 10, 4-(1-oxo-1H-phenalen-9-yl)benzonitrile]	> 10	10 ± 1	detrimental to activity	
N#Cc1ccc2cccc3c2c1C(=O)C=C3 [Compound 18, 1-oxo-1H-phenalene-9-carbonitrile]		32 ± 0.5	most potent compound	
O=C1C=Cc2cccc3ccc(-c4ccc(F)cc4)c1c23 [Compound 11, 9-(4-fluorophenyl)-1H-phenalen-1-one]	> 10	8 ± 0.2		
O=C1C(Br)=Cc2cccc3cccc1c23 [Compound 2, 2-Bromo-1H-phenalen-1-one]	< 1	2 ± 0.7		IC50 ([2]; FCR3 strain): 0.7 ± 0.04 µM
O=C1C(c2ccoc2)=Cc2cccc3cccc1c23 [Compound 7, 2-(3-furyl)-1H-phenalen-1-one]	> 10	22 ± 0.2	significant loss in antiplasmodium activity	
O=C1C=Cc2cccc3ccc(-c4ccccn4)c1c23 [Compound 1c]				IC50 (Plasmodium falciparum): 21 µM
NC(=O)c1ccc2cccc3c2c1C(=O)C=C3 [Compound 19, 1-oxo-1H-phenalene-9-carboxamide]	> 10	0	neither the 2-cyano compound (20) nor the 9-amido compound (19) were active, even at 10 µM	
O=C1C=Cc2cccc3cccc1c23 [Compound 1, 1H-phenalen-1-one]	2.46 ± 0.08	16 ± 0.4		
COc1cccc(-c2ccc3cccc4c3c2C(=O)C=C4)c1 [Compound 13, 9-(3-methoxyphenyl)-1H-phenalen-1-one]	> 10	12 ± 0.1		
O=C1C=Cc2cccc3ccc(-c4ccccc4)c1c23 [Compound 9, 9-Phenyl-1H-phenalen-1-one]	> 10	6 ± 0.1		
O=C1C(c2ccc(F)cc2)=Cc2cccc3cccc1c23 [Compound 6, 2-(4-fluorophenyl)-1H-phenalen-1-one]	> 10	10 ± 2		

Compound	IC50 [2, 3] [µM]	inhibition at 10 µM (MCF-7 cells) [%]	antiplasmodium activity (in words) [1]	further results
O=C1C=Cc2cccc3cncc1c23 [Compound 35, 4H-benzo[de]isoquinolin-4-one]	> 10	7 ± 0.1	complete loss of activity	
COc1ccc(NC2=Cc3cccc4cccc(c34)C2=O)cc1 [Compound 23, 2-(4-methoxyanilino)-1H-phenalen-1-one]	> 10	12 ± 0.6		
O=C1C(Nc2ccc(Cl)cc2)=Cc2cccc3cccc1c23 [Compound 22, 2-[(4-chloroanilino]-1H-phenalen-1-one]	> 10	42 ± 0.1		
COc1ccc(C2=CC(=O)c3cccc4cccc2c34)cc1 [Compound 1d]				IC50 (Plasmodium falciparum): 2.1 µM
O=C1C(I)=Cc2cccc3cccc1c23 [Compound 3, 2-Iodo-1H-phenalen-1-one]	> 10	4 ± 0.4	significant loss in antiplasmodium activity	
O=C1C=Cc2cccc3ccc(Nc4ccc(Cl)cc4)c1c23 [Compound 17, 9-[(4-chlorophenyl)amino]-1H-phenalen-1-one]	> 10	12 ± 0.3		
O=C1C=Cc2c(O)ccc3ccc(O)c1c23 [Compound 30, 4,9-dihydroxy-1H-phenalen-1-one]	> 10	16 ± 0.4	diminished antiplasmodium activity	
COc1ccc2c3c(cncc13)C(=O)C=C2 [Compound 36, 9-methoxy-4H-benzo[de]isoquinolin-4-one]	> 10	5 ± 0.9		
O=C1C(c2ccccc2)=Cc2cccc3cccc1c23 [Compound 4, 2-phenyl-1H-phenalen-1-one]	> 10	14 ± 0.8	significant loss in antiplasmodium activity	
COc1ccc(Nc2ccc3cccc4c3c2C(=O)C=C4)cc1 [Compound 15, 9-[(4-methoxyphenyl)amino]-1H-phenalen-1-one]	> 10	1 ± 0.4		
O=C(O)c1cc2cccc3c2c(c1O)C(=O)C=C3 [Compound 34, 9-hydroxy-1-oxo-1H-phenalene-8-carboxylic acid]	> 10	0	lost	
CCOC(=O)c1cc2cccc3c2c(c1O)C(=O)C=C3 [Compound 33, ethyl 9-hydroxy-1-oxo-1H-phenalene-8-carboxylate]	> 10	0	lost	
O=C1C(Nc2ncccn2)=Cc2cccc3cccc1c23 [Compound 25, 2-(pyrimidin-2-ylamino)-1H-phenalen-1-one]	> 10	16 ± 0.9		
O=C1C=Cc2cccc3ccc(O)c1c23 [Compound 9-OH, 9-hydroxy-1H-phenalen-1-one]	< 1	6 ± 0.7	sub-micromolar activity	IC50 ([2]; FCR3 strain): 0.72 ± 0.06 µM
COc1ccccc1-c1ccc2cccc3c2c1C(=O)C=C3 [Compound 14, 9-(2-methoxyphenyl)-1H-phenalen-1-one]	> 10	15 ± 0.2		
COc1ccc(-c2ccc3cccc4c3c2C(=O)C=C4)cc1 [Compound 12, 9-(4-methoxyphenyl)-1H-phenalen-1-one]	> 10	15 ± 0.3		
COc1cccc2c1C(=O)c1c(O)c3c(c(O)c1C2=O)C[C@@](O)(C(=O)CO)C[C@@H]3O[C@H]1C[C@H](N)[C@H](O)[C@H](C)O1 [Adriamycin, reference compound]		63 ± 4.7		
